# In patent publication US7795456B2, “Insecticidal N-substituted sulfoximines” (Dow AgroSciences LLC, priority 2004, dated 2010):
# What was measured:
# [1] = tested on: corn earworm (Helicoverpa zea); settings: 50 μg/cm2, second-instar larvae, 5 days
# [2] = tested on: beet armyworm (Spodoptera exigua); settings: 50 μg/cm2, second-instar larvae, 5 days
# [3] = tested on: fruit fly (Drosophila melanogaster); settings: for FF 25: % mortality at 25 μg/cm2 against fruit fly in dietary tests: 25 μg/cm2, 48 h
# [4] = tested on: cotton aphid (Aphis gossypii); test: Insecticidal test for cotton aphid, foliar spray on squash; settings: for pest or weed control at 50 ppm / pest or weed control at 200 ppm: Aphis gossypii, foliar, 72 h; for pest or weed control at 50 ppm: read-out: CA 50: % control at 50 ppm against cotton aphid in foliar spray tests; for pest or weed control at 200 ppm: read-out: CA 200: % control at 200 ppm against cotton aphid in foliar spray tests
# [5] = tested on: green peach aphid (Myzus persicae); test: Insecticidal test for green peach aphid, foliar spray on cabbage seedlings; settings: rundown assay, 3 days
# [6] = tested on: beet armyworm (Spodoptera exigua); test: Insecticidal test for beet armyworm in injection assays; settings: 1 h, read-out: BAW SYM: % showing intoxicated symptoms at 10 μg/larva against beet armyworm in injection tests
Compound,CEW 50: % mortality at 50 μg/cm2 against corn earworm in dietary tests [1],BAW 50: % mortality at 50 μg/cm2 against beet armyworm in dietary tests [2],FF 25: % mortality at 25 μg/cm2 against fruit fly in dietary tests [3],pest or weed control at 50 ppm [4] [%],pest or weed control at 200 ppm [4] [%],pest or weed control at 0.01 mg [6] [%],other results
CC(c1ccc(Cl)nc1)S(C)(=O)=N[N+](=O)[O-] (centres unmarked) [Compound 36],G (Inactive),G (Inactive),F (Less than 50),90 to 100,90 to 100,–,"FF SYM: % showing intoxicated symptoms at 25 μg/cm2 against fruit fly in dietary tests ([3]; 25 μg/cm2, 4 h): F (Less than 50); % Control at ppm, against cotton aphid: 0.049 ([4]; 0.049 ppm, rundown assay): F (Less than 50); % Control at ppm, against cotton aphid: 0.195 ([4]; 0.195 ppm, rundown assay): F (Less than 50); % Control at ppm, against cotton aphid: 0.78 ([4]; 0.78 ppm, rundown assay): C (70-79); % Control at ppm, against cotton aphid: 3.12 ([4]; 3.12 ppm, rundown assay): A (90-100); % Control at ppm, against cotton aphid: 12.5 ([4]; 12.5 ppm, rundown assay): A (90-100); % Control at ppm, against cotton aphid: 50 ([4]; 50 ppm, rundown assay): A (90-100); % Control at ppm, against green peach aphid: 0.049 ([5]; 0.049 ppm): F (Less than 50); % Control at ppm, against green peach aphid: 0.195 ([5]; 0.195 ppm): E (50-59); % Control at ppm, against green peach aphid: 0.78 ([5]; 0.78 ppm): D (60-69); % Control at ppm, against green peach aphid: 3.12 ([5]; 3.12 ppm): C (70-79); % Control at ppm, against green peach aphid: 12.5 ([5]; 12.5 ppm): A (90-100); % Control at ppm, against green peach aphid: 50 ([5]; 50 ppm): A (90-100)"
CC[S@@](=O)(C[C@@H](C)c1ccc(Cl)nc1)=NC#N [Compound 17],G (Inactive),G (Inactive),G (Inactive),90 to 100,90 to 100,–,–
"COC(=O)N=S1(=O)CCCC1Cc1ccc(Cl)nc1 (centres unmarked) [Compound 7, methyl 2-[(6-chloropyridin-3-yl)methyl]-1-oxidotetrahydro-1H-1λ^4-thien-1-ylidenecarbamate]",G (Inactive),G (Inactive),G (Inactive),–,80 to 89,–,–
"CC(Cc1ccc(Cl)nc1)CS(C)(=O)=N[N+](=O)[O-] (centres unmarked) [Compound 3, 2-chloro-5-(2-methyl-3-{methyl(oxido)[oxido-(oxo)hydrazono]-λ^4-sulfanyl}propyl)pyridine]",G (Inactive),G (Inactive),G (Inactive),–,80 to 89,–,–
CC(C)[C@H]1CCCS1(=O)=NC#N (some centres unmarked) [Compound 31],G (Inactive),G (Inactive),G (Inactive),–,90 to 100,–,–
CC[S@@](=O)(C[C@H](C)c1ccc(Cl)nc1)=NC#N [Compound 16],G (Inactive),G (Inactive),G (Inactive),90 to 100,90 to 100,< 50,–
"N#CN=S1(=O)CCCCC1 [Compound 6, 1-Oxidohexahydro-1λ^4-thiopyran-1-ylidenecyanamide]",G (Inactive),G (Inactive),G (Inactive),–,–,–,–
"N#CN=S1(=O)CCCC1c1ccccc1 (centres unmarked) [Compound 22, (1-oxido-2-phenyltetrahydro-1H-11^4-thien-1-ylidene)cyanamide]",G (Inactive),G (Inactive),G (Inactive),80 to 89,90 to 100,< 50,–
CC(C)C1CCCS1(=O)=NC#N (centres unmarked) [Compound 32],G (Inactive),G (Inactive),G (Inactive),–,80 to 89,50 to 59,–
CC[S@](=O)(=N[N+](=O)[O-])[C@@H](C)c1ccc(Cl)nc1 [Compound 40],G (Inactive),G (Inactive),G (Inactive),–,80 to 89,–,–
